{"source": "patent US12138268B2", "about": "“Treatment of erectile dysfunction and other indications” (Strategic Science & Technologies, LLC, priority 2009, dated 2024)", "origin": "cited, not measured here", "data": [{"smiles": "CCCOc1ccc(S(=O)(=O)N2CCN(CCO)CC2)cc1-c1nc2c(CCC)cn(CC)c2c(=O)[nH]1", "note": "[mirodenafil]", "values": [{"measurement": "pKa", "result": 6.0}]}]}
